Experiments:
[1] = target: T1, HCV polymerase (NS5B) type 1a (Hepatitis C virus genotype 1a, UniProt P26664); test: Assay of enzyme (HCV polymerase) inhibitory activity, type 1a enzyme; type: biochemical, HCV type 1a (cloned from the blood of patients)
T1 construct: made in house; host or cells: Escherichia coli (by the 'similar method' of the 1b enzyme)
Outline: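 IC50 values derive from radioactivity of newly synthesized RNA with versus without test compound. The enzyme was C-terminally truncated type 1a NS5B, 1.5 μg/ml, run 60 min at 25° C with 3H-UTP-labelled nucleotides.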

[2] = target: T2, HCV polymerase (NS5B) type 1b (Hepatitis C virus genotype 1b, UniProt P26663); test: Assay of enzyme (HCV polymerase) inhibitory activity, type 1b enzyme; type: biochemical, HCV BK strain (type 1b)
T2 construct: a region encoding NS5B (J Virol 1991 March, 65(3), 1105-13, 544 amino acids after deletion of 47 amino acids on the C-terminal); 6xHis (C); made in house; host or cells: Escherichia coli
Outline: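 Polymerase activity was followed as radiolabelled UTP incorporation by E. coli-expressed, His-tagged NS5B of HCV type 1b lacking its last 47 residues. Conditions: 2 μM UTP, 50 μM other NTPs, Mg2+ buffer at pH 7.5, 25 °C for 60 min. Inhibition relative to compound-free reactions gave IC50.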

[3] = HCV polymerase inhibitory activity (IC50), 1a, type 1a enzyme 1.5 μg/ml, 25° C., 60 min
[4] = HCV polymerase inhibitory activity (IC50), 1b, type 1b enzyme 0.5 μg/ml, 25° C., 60 min
[5] = HCV polymerase inhibitory activity IC50, 1a, type 1a enzyme
[6] = HCV polymerase inhibitory activity IC50, 1b, type 1b enzyme

Compound	IC50 [1, 3]	IC50 [2, 4]	IC50 [1, 5]	IC50 [2, 6]
COCc1ccc(CNC(=O)[C@H]2CN(c3cnc4cncnc4n3)CCN2S(=O)(=O)c2ccc(OC(F)(F)F)cc2)cc1 [Example 657, (R)-4-pteridin-7-yl-1-(4-trifluoromethoxy-benzenesulfonyl)-piperazine-2-carboxylic acid 4-methoxymethyl-benzylamide]	< 100 nM	< 100 nM	–	–
CC(C)c1ccc(S(=O)(=O)N2CCN(C=O)CC2C(=O)NCc2ccc(C(F)(F)F)cc2)cc1 (stereo not shown) [Example 63, 4-formyl-1-(4-isopropyl-benzenesulfonyl)-piperazine-2-carboxylic acid 4-trifluoromethyl-benzylamide]	> 1000 nM	> 1000 nM	–	–
O=C(NCc1ccc(OC(F)(F)F)cc1)[C@H]1CN(c2nc3ccncc3s2)CCN1S(=O)(=O)c1ccc(OC(F)(F)F)cc1 [Example 768, (R)-4-thiazolo[5,4-c]pyridin-2-yl-1-(4-trifluoromethoxy-benzenesulfonyl)-piperazine-2-carboxylic acid 4-trifluoromethoxy-benzylamide]	–	–	< 100 nM	< 100 nM
CC(=O)N1CCN(S(=O)(=O)c2ccc(OC(F)(F)F)c(C(=O)O)c2)[C@@H](C(=O)NCc2ccc(C(C)C)cc2)C1 [Example 305, 5-[(R)-4-acetyl-2-(4-isopropyl-benzylcarbamoyl)-piperazine-1-sulfonyl]-2-trifluoromethoxy-benzoic acid]	100 to 1000 nM	< 100 nM	–	–
CC(C)c1ccc(CNC(=O)[C@H]2CN(C(=O)Cn3ccnn3)CCN2S(=O)(=O)c2ccc(C(F)(F)F)cc2)cc1 [Example 220, (R)-4-(2-[1,2,3]triazol-1-yl-acetyl)-1-(4-trifluoromethyl-benzenesulfonyl)-piperazine-2-carboxylic acid 4-isopropyl-benzylamide]	< 100 nM	< 100 nM	–	–
CC(C)c1ccc(CNC(=O)[C@H]2CN(C(=O)Nc3cccc(C(=O)O)c3)CCN2S(=O)(=O)c2ccc(C(F)(F)F)cc2)cc1 [Example 286, 3-{[(R)-3-(4-isopropyl-benzylcarbamoyl)-4-(4-trifluoromethyl-benzenesulfonyl)-piperazine-1-carbonyl]-amino}-benzoic acid]	100 to 1000 nM	100 to 1000 nM	–	–
CCOC(=O)c1csc(N2CCN(S(=O)(=O)c3ccc(C(C)C)cc3)C(C(=O)NCc3ccc(C(F)(F)F)cc3)C2)n1 (stereo not shown) [Example 170, 2-[4-(4-isopropyl-benzenesulfonyl)-3-(4-trifluoromethyl-benzylcarbamoyl)-piperazin-1-yl]-thiazole-4-carboxylic acid ethyl ester]	> 1000 nM	> 1000 nM	–	–
CC(=O)N1CCN(S(=O)(=O)c2ccc(C(C)C)cc2)[C@@H](C(=O)NCCN2CCOCC2)C1 [Example 403, (R)-4-acetyl-1-(4-isopropyl-benzenesulfonyl)-piperazine-2-carboxylic acid (2-morpholin-4-yl-ethyl)-amide]	> 1000 nM	> 1000 nM	–	–
COC1(c2ncc3sc(N4CCN(S(=O)(=O)c5ccc(OC(F)(F)F)cc5)[C@@H](C(=O)NCc5ccc(OC(F)(F)F)cc5)C4)nc3n2)CC1 [Example 1079, (R)-4-[5-(1-methoxy-cyclopropyl)-thiazolo[4,5-d]pyrimidin-2-yl]-1-(4-trifluoromethoxy-benzenesulfonyl)-piperazine-2-carboxylic acid 4-trifluoromethoxy-benzylamide]	–	–	< 100 nM	< 100 nM
O=C(NCc1ccc(OC(F)(F)F)cc1)[C@H]1CN(c2nc3cnnc(Cl)c3s2)CCN1S(=O)(=O)c1ccc(C(F)(F)F)cc1 [Example 896, (R)-4-(7-chloro-thiazolo[4,5-d]pyridazin-2-yl)-1-(4-trifluoromethyl-benzenesulfonyl)-piperazine-2-carboxylic acid 4-trifluoromethoxy-benzylamide]	–	–	< 100 nM	< 100 nM
CC(C)c1ccc(CNC(=O)[C@H]2CN(C(=O)Cn3nccn3)CCN2S(=O)(=O)c2ccc(C(F)(F)F)cc2)cc1 [Example 242, (R)-4-(2-[1,2,3]triazol-2-yl-acetyl)-1-(4-trifluoromethyl-benzenesulfonyl)-piperazine-2-carboxylic acid 4-isopropyl-benzylamide]	100 to 1000 nM	100 to 1000 nM	–	–
CCOC(=O)c1ncc2sc(N3CCN(S(=O)(=O)c4ccc(OC(F)(F)F)cc4)[C@@H](C(=O)NCc4ccc(OC(F)(F)F)cc4)C3)nc2n1 [Example 1007, 2-[(R)-4-(4-trifluoromethoxy-benzenesulfonyl)-3-(4-trifluoromethoxy-benzylcarbamoyl)-piperazin-1-yl]-thiazolo[4,5-d]pyrimidine-5-carboxylic acid ethyl ester]	–	–	< 100 nM	< 100 nM
CC(=O)N1CCN(S(=O)(=O)c2ccc(OC(F)(F)F)cc2)[C@@H](C(=O)NCc2csc(-c3cccs3)n2)C1 [Example 599, (R)-4-acetyl-1-(4-trifluoromethoxy-benzenesulfonyl)-piperazine-2-carboxylic acid (2-thiophen-2-yl-thiazol-4-ylmethyl)-amide]	100 to 1000 nM	> 1000 nM	–	–
CCC(F)(F)c1ccc(CNC(=O)[C@H]2CN(c3cnc(C#N)cn3)CCN2S(=O)(=O)c2ccc(OC(F)(F)F)cc2)cc1 [Example 591, (R)-5′-cyano-4-(4-trifluoromethoxy-benzenesulfonyl)-3,4,5,6-tetrahydro-2H-[1,2′]bipyrazinyl-3-carboxylic acid 4-(1,1-difluoro-propyl)-benzylamide]	< 100 nM	< 100 nM	–	–
CCC(F)(F)c1ccc(CNC(=O)[C@H]2CN(C(=O)N3CC(C(=O)O)C3)CCN2S(=O)(=O)c2ccc(OC(F)(F)F)cc2)cc1 [Example 705, 1-[(R)-3-[4-(1,1-difluoro-propyl)-benzylcarbamoyl]-4-(4-trifluoromethoxy-benzenesulfonyl)-piperazine-1-carbonyl]-azetidine-3-carboxylic acid]	–	–	> 1000 nM	> 1000 nM
O=C(NCc1ccc(OC(F)(F)F)cc1)[C@H]1CN(c2nc3nc(C(F)(F)F)ncc3s2)CCN1S(=O)(=O)c1ccc(C2CC2)cc1 [Example 1100, (R)-4-(5-trifluoromethyl-thiazolo[4,5-d]pyrimidin-2-yl)-1-(4-cyclopropyl-benzenesulfonyl)-piperazine-2-carboxylic acid 4-trifluoromethoxy-benzylamide]	–	–	< 100 nM	< 100 nM
CCC(F)(F)c1ccc(CNC(=O)[C@H]2CN(c3cnc4cncnc4n3)CCN2S(=O)(=O)c2ccc(OC)cc2)cc1 [Example 747, (R)-1-(4-methoxy-benzenesulfonyl)-4-pteridin-7-yl-piperazine-2-carboxylic acid 4-(1,1-difluoro-propyl)-benzylamide]	–	–	< 100 nM	< 100 nM
CC[N+](CC)(CC)Cc1cnc(N2CCN(S(=O)(=O)c3ccc(OC(F)(F)F)cc3)[C@@H](C(=O)NCc3ccc(C(C)(C)C)cc3)C2)cn1 [Example 1095, [(R)-3-(4-tert-butyl-benzylcarbamoyl)-4-(4-trifluoromethoxy-benzenesulfonyl)-3,4,5,6-tetrahydro-2H-[1,2′]bipyrazinyl-5′-ylmethyl]-triethyl-ammonium trifluoro-methanesulfonate]	–	–	100 to 1000 nM	100 to 1000 nM
CCCc1ccc(CNC(=O)[C@H]2CN(c3nc(CC)c(C(=O)O)s3)CCN2S(=O)(=O)c2ccc(OC(F)(F)F)cc2)c(C)c1 [Example 363, 4-ethyl-2-[(R)-3-(2-methyl-4-propyl-benzylcarbamoyl)-4-(4-trifluoromethoxy-benzenesulfonyl)-piperazin-1-yl]-thiazole-5-carboxylic acid]	< 100 nM	< 100 nM	–	–
CCCc1ccc(S(=O)(=O)N2CCN(c3nc(C)c(C(=O)O)s3)C[C@@H]2C(=O)NCc2ccc(C(C)C)cc2)s1 [Example 380, 2-[(R)-3-(4-isopropyl-benzylcarbamoyl)-4-(5-propyl-thiophene-2-sulfonyl)-piperazin-1-yl]-4-methyl-thiazole-5-carboxylic acid]	< 100 nM	< 100 nM	–	–
CC(C)c1ncc2sc(N3CCN(S(=O)(=O)c4ccc(C(F)(F)F)cc4)[C@@H](C(=O)NCc4ccc(OC(F)(F)F)cc4)C3)nc2n1 [Example 991, (R)-4-(5-isopropyl-thiazolo[4,5-d]pyrimidin-2-yl)-1-(4-trifluoromethyl-benzenesulfonyl)-piperazine-2-carboxylic acid 4-trifluoromethoxy-benzylamide]	–	–	< 100 nM	< 100 nM
Cc1nnc(NC(=O)N2CCN(S(=O)(=O)c3ccc(OC(F)(F)F)cc3)[C@@H](C(=O)NCc3ccc(C(F)(F)C(F)(F)F)cc3)C2)s1 [Example 552, (R)-4-(4-trifluoromethoxy-benzenesulfonyl)-piperazine-1,3-dicarboxylic acid 1-[(5-methyl-[1,3,4]thiadiazol-2-yl)-amide] 3-(4-pentafluoroethyl-benzylamide)]	> 1000 nM	100 to 1000 nM	–	–
Cc1cc(N2CCN(S(=O)(=O)c3ccc(OC(F)(F)F)cc3)[C@@H](C(=O)NCc3ccc(C(C)C)cc3)C2)n[nH]1 [Example 523, (R)-4-(5-methyl-1H-pyrazol-3-yl)-1-(4-trifluoromethoxy-benzenesulfonyl)-piperazine-2-carboxylic acid 4-isopropyl-benzylamide]	100 to 1000 nM	100 to 1000 nM	–	–

Source: patent US8017612B2, “Piperazine compound and use thereof as a HCV polymerase inhibitor” (priority 2006, dated 2011)
